Columns and labels:
[1] = cited from earlier work
[2] = Individual components administered separately from the other components; format: in vivo, human; conditions: administered separately from the other components of the invention
Excerpt: Thus, the invention is named “Formula of activity”. The invention offers methods of treating patients who refuse food and can die as a result. […] It is possible that this new effect is produced by a new substance that is formed as a result of the interaction of the components of the invention with each other or with other naturally occurring substances in the body. The components may exert their effect by through the reticular formation in the brain, which is the regulating center of different brain functions. The reticular formation coordinates the interactions between all structures of the brain. It analyzes and corrects the functions of the brain structures and ensures their proper hierarchical dependencies, as well as the readiness of the central nervous system to perform its functions.

[3] = Effect of composition on selected patients and disorders (case reports); format: in vivo, human
Excerpt: The following are several of many patients who were successfully treated by the invention.

## CCC1(CCC(C)C)C(=O)N=C([O-])NC1=O.[Na+] (stereo not shown) [Barbamyl]
[1]
  Dependency on repeated injections: lead to psychological and physiological dependency on this substance

## O=S(=O)([O-])[O-].[Mg+2] [Magnesium sulfate, magnesium sulfate]
[2]
  Stimulating or disinhibiting effect / effect on appetite when administered alone: does not lead to a desired stimulating or disinhibiting effect

## CN1CCN(CCCN2c3ccccc3Sc3ccc(C(F)(F)F)cc32)CC1 [Stelazine]
[3]; Patient N, postpartum psychosis, 5 mg once per day first week, then 1 mg two times a day
  Clinical outcome: improved regarding their condition and delusional ideas; however they remained apathetic, fatigued and indifferent

## O=S(=O)([O-])CC(S)CS.[Na+] (stereo not shown) [Unithiol]
[2]
  Stimulating or disinhibiting effect / effect on appetite when administered alone: does not lead to a desired stimulating or disinhibiting effect

## CN(C)CCCN1c2ccccc2Sc2ccc(Cl)cc21 [aminazine]
[3]; Patient B, paranoid schizophrenia, after disinhibition, 50 mg intravenously
  Effect after administration: the patient fell asleep

## CN1C(=O)CN=C(c2ccccc2)c2cc(Cl)ccc21 [valium]
[3]; Patient S, closed head trauma, before the course of the invention, injection
  Sleep: they would fall asleep only after injection of valium

## calcium pantothenate
[2]
  Stimulating or disinhibiting effect / effect on appetite when administered alone: does not lead to a desired stimulating or disinhibiting effect
